From publication PMC10648349, “Aromatic Diboronic Acids as Effective KPC/AmpC Inhibitors” (Molecules, 2023)
Blank lines part the entries; values can stand above or below the molecule they belong to.

Legend:
E. coli 77 CMY-2(+) [1] = assay: screening test of direct antimicrobial activity (STDA), disc-diffusion; assay type: cell-based; details: Escherichia coli, - no zone, read-out: Diameter of inhibition zone around disc with tested agent
Method: (§1) Prior to combination disc tests, screening tests of direct antimicrobial activity (STDA) of the tested agent against β-lactamase-producing strains were performed by the disc-diffusion method. Discs with 0.3 mg, 0.1 mg, and 0.03 mg of each agent were examined. The highest amount of an agent that caused no effect on bacterial growth was used in further experiments.

[2] = system: K. pneumoniae ATCC 700603 ESBL(+); assay: as above; assay type: cell-based; details: Klebsiella pneumoniae, ATCC700603, - no zone, read-out: Diameter of inhibition zone around disc with tested agent
Method: as §1

[3] = system: K. pneumoniae ATCC BAA 1705 KPC(+); assay: as above; assay type: cell-based; details: Klebsiella pneumoniae, BAA1705, - no zone, read-out: Diameter of inhibition zone around disc with tested agent
Method: as §1

[4] = system: P. aeruginosa MUW 700 AmpC(+); assay: as above; assay type: cell-based; details: Pseudomonas aeruginosa, - no zone, read-out: Diameter of inhibition zone around disc with tested agent
Method: as §1

E. coli 76 KPC-2(+) = assay: MIC of tested agent alone, microdilution; assay type: cell-based; details: Escherichia coli; read-out: MIC of agent alone
Outline: (§2)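 Checkerboard synergy testing crossed two-fold dilutions of the tested agents or PBA (4–16 mg/L) with β-lactam dilutions (1–64 mg/L), and antibiotic MICs were read at each agent level. FICI was derived from the interface wells. Separately, each agent's own MIC came from standard microdilution.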

E. coli 77 CMY-2(+) [5] = assay: MIC of tested agent alone, microdilution; assay type: cell-based; details: Escherichia coli; read-out: MIC of agent alone
Outline: as §2

[6] = system: K. pneumoniae 81 KPC-3(+); assay: MIC of tested agent alone, microdilution; assay type: cell-based; details: Klebsiella pneumoniae; read-out: MIC of agent alone
Outline: as §2

[7] = system: K. pneumoniae 83 KPC-3(+), CTX-M-3(+); assay: MIC of tested agent alone, microdilution; assay type: cell-based; details: Klebsiella pneumoniae; read-out: MIC of agent alone
Outline: as §2

[8] = system: K. pneumoniae ATCC BAA-1705 KPC-2(+); assay: MIC of tested agent alone, microdilution; assay type: cell-based; details: Klebsiella pneumoniae, ATCCBAA1705; read-out: MIC of agent alone
Outline: as §2

[9] = system: P. aeruginosa MUW 700 AmpC(+); assay: MIC of tested agent alone, microdilution; assay type: cell-based; details: Pseudomonas aeruginosa; read-out: MIC of agent alone
Outline: as §2

[10] = system: K. pneumoniae ATCC 700603 ESBL-positive; assay: combination disc test CDT-ESBL; assay type: cell-based; details: Klebsiella pneumoniae, ATCC700603, read-out: Diameter of inhibition zone, CAZ-30 disc with agent
[11] = system: E. coli 76 KPC-2-positive; assay: checkerboard microdilution, antibiotic plus tested agent; assay type: cell-based, Escherichia coli
Outline: (§3)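 Read-out is the antibiotic MIC with agent present, plus FICI = combined/alone MIC ratios summed for both partners. Meropenem pairs served for carbapenemase strains and ceftazidime pairs for the AmpC strain. Agent or PBA was tested at 4–16 mg/L.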

[12] = system: K. pneumoniae 81 KPC-3-positive; assay: as above; assay type: cell-based, Klebsiella pneumoniae
Outline: as §3

[13] = system: K. pneumoniae 83 KPC-3-positive, CTX-M-3-positive; assay: as above; assay type: cell-based, Klebsiella pneumoniae
Outline: as §3

[14] = system: K. pneumoniae ATCC BAA-1705 KPC-2-positive; assay: as above; assay type: cell-based, Klebsiella pneumoniae
Outline: as §3

[15] = system: P. aeruginosa MUW 700 cAmpC-positive; assay: as above; assay type: cell-based, Pseudomonas aeruginosa
Outline: as §3

KPC producers = assay: microdilution with carbapenems; assay type: cell-based
Method: (§4) To examine the ability of tested agents to inhibit various carbapenemases and AmpC-enzymes, their synergy with antibiotics against β-lactamase-producing strains was assessed by checkerboard microdilution assay, with slight modification. Checkerboards were prepared in microtiter plates, with seven two-fold dilutions of β-lactams (1–64 mg/L) in the rows and three two-fold dilutions of tested agents and PBA (4–16 mg/L) in the columns. Tested agents’ concentrations were limited to the concentrations at which the newest commercially available BLIs (vaborbactam, relebactam, and avibactam) are used in susceptibility testing. Plates were inoculated and incubated as in the MIC microdilution assay. Parallel, MICs of tested agents and PBA alone were determined by the microdilution assay. Following the incubation, antibiotic MICs in the presence of each agent’s concentration were determined. Moreover, for the first well without growth found in each checkerboard row and column along the growth/non-growth interface, the fractional inhibitory concentration index (FICI) was calculated using the formula below:FICI = [(MIC of antibiotic in combination)/(MIC of antibiotic alone)] + [(MIC of the tested agent in combination)/(MIC of tested agent alone)].
(§5) For calculations, all off-scale MICs were converted to the next-highest doubling concentration. Subsequently, both the average and the lowest FICI were interpreted. The interpretation was as follows: FICI ≤ 0.5, synergy; 0.5 < FICI ≤ 4, indifference and FICI > 4, antagonism. Primarily, examined combinations consisted of meropenem (Pol-Aura, Morag, Poland) plus tested agents against carbapenemases-producing strains and ceftazidime (Pol-Aura, Morag, Poland) plus tested agents against AmpC-producing strains. For agents that reduced meropenem MIC at least 4-fold for at least two tested strains, similar assays were performed with imipenem (Pol-Aura, Morag, Poland) and ertapenem (Pol-Aura, Morag, Poland).

AmpC producers = assay: microdilution with ceftazidime; assay type: cell-based
Method: as §4, §5

[16] = system: E. coli 82 TR(pl 81), transformant carrying blaKPC-3; assay: whole cell assay, meropenem MIC with tested agent; assay type: cell-based, Escherichia coli
Method: as §4

E. coli DH5α = assay: whole cell assay, meropenem MIC with tested agent; assay type: cell-based, Escherichia coli
Method: as §4

[17] = Escherichia coli, read-out: MIC of agent alone

- MIC (E. coli 76 KPC-2(+)): 100 µg/mL
- MIC (E. coli 77 CMY-2(+) [5]): 100 µg/mL
- MIC [6]: 200 µg/mL
- MIC [7]: 100 µg/mL
- MIC [8]: 100 µg/mL
- MIC [9]: 400 µg/mL
- carbapenems' MIC reduction, up to (KPC producers; agent 4 mg/L): ≤ 2 fold
- carbapenems' MIC reduction, up to (KPC producers; agent 8 mg/L): up to 8 fold
- ceftazidime MIC reduction, up to (AmpC producers; agent 4 mg/L): ≤ 8 fold
- ceftazidime MIC reduction, up to (AmpC producers; agent 8 mg/L): up to 16 fold
- ceftazidime MIC reduction, up to (AmpC producers; agent 16 mg/L): up to 32 fold
Compound: OB(O)c1cc(F)ccc1F [7a, 2,5-difluorophenylboronic acid]
- zone of inhibition at 100 µg/disc (E. coli 77 CMY-2(+) [1]; 0.1 mg per disc): 13 mm
- zone of inhibition at 300 µg/disc (E. coli 77 CMY-2(+) [1]; 0.3 mg per disc): 18 mm
- zone of inhibition at 100 µg/disc ([2]; 0.1 mg per disc): 18 mm
- zone of inhibition at 300 µg/disc ([2]; 0.3 mg per disc): 18 mm
- zone of inhibition at 100 µg/disc ([3]; 0.1 mg per disc): 12 mm
- zone of inhibition at 300 µg/disc ([3]; 0.3 mg per disc): 17 mm
- zone of inhibition at 100 µg/disc ([4]; 0.1 mg per disc): 11 mm
- zone of inhibition at 300 µg/disc ([4]; 0.3 mg per disc): 12 mm
- zone of inhibition at 30 µg/disc ([10]; agent 0.03 mg per disc): 15 mm
- Average FICI with ERT [11]: 0.51
- Average FICI with IMI [11]: 0.30
- Average FICI with MEM [11]: 0.51
- The lowest FICI with ERT [11]: 0.41
- The lowest FICI with IMI [11]: 0.29
- The lowest FICI with MEM [11]: 0.41
- Average FICI with ERT [12]: 0.46
- Average FICI with IMI [12]: 0.21
- Average FICI with MEM [12]: 0.23
- The lowest FICI with ERT [12]: 0.33
- The lowest FICI with IMI [12]: 0.17
- The lowest FICI with MEM [12]: 0.14
- Average FICI with ERT [13]: 0.51
- Average FICI with IMI [13]: 0.30
- Average FICI with MEM [13]: 0.47
- The lowest FICI with ERT [13]: 0.41
- The lowest FICI with IMI [13]: 0.29
- The lowest FICI with MEM [13]: 0.29
- Average FICI with ERT [14]: 0.76
- Average FICI with IMI [14]: 0.43
- Average FICI with MEM [14]: 0.51
- The lowest FICI with ERT [14]: 0.58
- The lowest FICI with IMI [14]: 0.33
- The lowest FICI with MEM [14]: 0.41
- Average FICI with ceftazidime [15]: 0.17
- Interpretation of the average FICI with ceftazidime [15]: S (FICI ≤ 0.5, synergy)
- Interpretation of the lowest FICI with ceftazidime [15]: S (FICI ≤ 0.5, synergy)
- The lowest FICI with ceftazidime [15]: 0.10

Compound: OB(O)c1cccc(B(O)O)c1 [2a]
- MIC (E. coli 76 KPC-2(+)): > 400 µg/mL
- MIC (E. coli 77 CMY-2(+) [5]): > 400 µg/mL
- MIC [6]: > 400 µg/mL
- MIC [7]: > 400 µg/mL
- MIC [8]: > 400 µg/mL
- MIC [9]: > 400 µg/mL
- zone of inhibition at 300 µg/disc ([10]; agent 0.3 mg per disc): 16 mm
- Average FICI with ceftazidime [15]: 0.18
- Interpretation of the average FICI with ceftazidime [15]: S (FICI ≤ 0.5, synergy)
- Interpretation of the lowest FICI with ceftazidime [15]: S (FICI ≤ 0.5, synergy)
- The lowest FICI with ceftazidime [15]: 0.14
- MIC [16, 17]: > 400 µg/mL
- MIC of meropenem in combination with agent ([16]; agent 4 mg/L): 1 µg/mL
- MIC of meropenem in combination with agent ([16]; agent 8 mg/L): 1 µg/mL
- MIC of meropenem in combination with agent ([16]; agent 16 mg/L): 1 µg/mL
- meropenem MIC reduction ([16]; agent 4, 8 and 16 mg/L): 2 fold
- MIC (E. coli DH5α; [17]): > 400 µg/mL
- MIC of meropenem in combination with agent (E. coli DH5α; agent 16 mg/L): 0.016 µg/mL
